Measured values taken from patent US8592621B2, “Precursor compounds of sweet taste receptor antagonists for the prevention or treatment of disease” (Symrise AG, priority 2009, dated 2013).
Each block holds one compound with its values, some of them ahead of it.

How the values were obtained:
T1R2/T1R3 receptors [1] = target: T1, T1R2/T1R3 receptors (Homo sapiens, UniProt Q7RTX0+Q8TE23); test: Calcium mobilization (FLIPR) in HEK293TREX cells expressing human TAS1R2/TAS1R3; assay type: cell-based; conditions: in the presence of naringin dihydrochalcone; FIG. 3
T1 construct: expressed in transfected cells; TAS1R2 from pCDNA5-FRT, TAS1R3 from pCDNA3-TO (tetracycline-induced), G15-Gi3 from pIRESpuro3
T1 sequence (Q8TE23 20-839): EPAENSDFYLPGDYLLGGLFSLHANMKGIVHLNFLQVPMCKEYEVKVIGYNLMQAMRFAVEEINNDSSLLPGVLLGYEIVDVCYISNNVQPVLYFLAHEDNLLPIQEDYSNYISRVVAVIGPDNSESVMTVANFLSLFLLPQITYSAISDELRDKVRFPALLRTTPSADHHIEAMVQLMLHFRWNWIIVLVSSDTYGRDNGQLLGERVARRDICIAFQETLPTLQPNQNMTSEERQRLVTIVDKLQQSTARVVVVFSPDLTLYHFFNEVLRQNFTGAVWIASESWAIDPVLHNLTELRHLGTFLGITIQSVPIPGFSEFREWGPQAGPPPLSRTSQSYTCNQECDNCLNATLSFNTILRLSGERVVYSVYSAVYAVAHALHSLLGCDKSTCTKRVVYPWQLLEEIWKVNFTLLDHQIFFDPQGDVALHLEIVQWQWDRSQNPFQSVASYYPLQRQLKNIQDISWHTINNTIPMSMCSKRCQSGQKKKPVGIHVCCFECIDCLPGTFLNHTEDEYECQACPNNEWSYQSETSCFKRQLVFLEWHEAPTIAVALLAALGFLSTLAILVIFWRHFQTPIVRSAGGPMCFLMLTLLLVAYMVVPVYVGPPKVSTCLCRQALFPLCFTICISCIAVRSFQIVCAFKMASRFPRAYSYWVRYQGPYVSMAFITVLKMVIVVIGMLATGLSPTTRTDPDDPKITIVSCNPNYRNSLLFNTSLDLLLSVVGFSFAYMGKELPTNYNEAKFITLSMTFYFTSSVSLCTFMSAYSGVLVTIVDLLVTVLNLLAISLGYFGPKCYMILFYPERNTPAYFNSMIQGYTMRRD
T1 sequence (Q7RTX0 21-852): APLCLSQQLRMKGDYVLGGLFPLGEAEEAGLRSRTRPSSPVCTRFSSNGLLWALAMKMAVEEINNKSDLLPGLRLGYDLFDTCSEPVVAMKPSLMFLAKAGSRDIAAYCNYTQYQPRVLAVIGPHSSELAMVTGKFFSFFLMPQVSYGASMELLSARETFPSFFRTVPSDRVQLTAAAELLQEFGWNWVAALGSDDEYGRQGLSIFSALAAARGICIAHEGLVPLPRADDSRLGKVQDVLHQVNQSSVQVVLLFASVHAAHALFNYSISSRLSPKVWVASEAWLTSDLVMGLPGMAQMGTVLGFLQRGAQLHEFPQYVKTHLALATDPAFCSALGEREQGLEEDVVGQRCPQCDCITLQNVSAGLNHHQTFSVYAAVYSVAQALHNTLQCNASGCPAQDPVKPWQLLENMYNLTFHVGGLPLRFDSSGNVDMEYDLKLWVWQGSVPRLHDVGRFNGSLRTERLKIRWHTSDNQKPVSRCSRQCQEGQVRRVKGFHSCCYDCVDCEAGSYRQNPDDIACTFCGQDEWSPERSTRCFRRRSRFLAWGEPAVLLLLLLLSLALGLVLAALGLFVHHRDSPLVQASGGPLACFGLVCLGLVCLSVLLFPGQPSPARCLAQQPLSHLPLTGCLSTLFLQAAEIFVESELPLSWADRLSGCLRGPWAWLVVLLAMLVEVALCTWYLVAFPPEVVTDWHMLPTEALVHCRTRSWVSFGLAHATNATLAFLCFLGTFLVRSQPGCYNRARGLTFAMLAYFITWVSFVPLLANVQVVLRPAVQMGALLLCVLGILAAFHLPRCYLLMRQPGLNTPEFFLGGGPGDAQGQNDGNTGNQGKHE

T1R2/T1R3 receptors [2] = target: T1, T1R2/T1R3 receptors; test: Activating or inhibiting effect on T1R2/T1R3 receptors according to concentration (same process as application example 3); assay type: cell-based; conditions: FIG. 4
Source text: A stable cell line (HEK293TREX) extracted from human embryonic renal cells was manufactured with the help of the plasmid pIRESpuro3, coding for the G protein chimeras G15-Gi3. A further plasmid (pCDNA5-FRT), coding for the human TAS1R2 sequence, was also used. In this way it was possible to integrate the gene in a defined chromosomal region. The human TAS1R3 subunit of the human sweet taste receptor was cloned in pCDNA3-TO. This allowed the induction of the target gene using tetracycline. The stable, transfixed cell line was cultivated in high glucose content DMEM without tetracycline. For the measurements the cells were sown and cultivated (37° C., 5% CO2) in polylysine-coated 96-well titrimetric places (black with transparent bases) until they achieved an 80% confluence. […] The calcium mobilization by receptor stimulation by the test substances was measured in an automated fluorometer (fluorometric imaging plate reader FLIPR, Molecular Devices, Sunnyvale, Calif.). The test substances were measured in a concentration of 1 mmol/l or 0.1 mmol/l in C1 solution. All data were determined in two independent experiments, which were each repeated three times. The calcium signals obtained were corrected for the proportion of the mock cells and (using the formula ΔF/F=(F−F0)/F0) normalized on the starting intensity of the fluorescence prior to addition of the test substances (F0).

[3] = test system: sweet taste impression of sweet tasting substances; test: Influence on the sensorial quality of sweet substances (expert panel rating of sweet taste impression); assay type: in vivo; conditions: for Sweet taste impression (1-10) Sample (B): scale 1 [not sweet] to 10 [extremely sweet]; for Change in sweet taste impression [%]: sample B vs sample A
Source text: In order to quantify the influence of inventive compounds of formula (I) on the sensorial characteristics of various sweet tasting substances, in each case a sample (A) (sweet tasting substance) and a sample (B) (sweet tasting substance+compound of formula (I) or lactisole (as standard)) were sensorially assessed by a group of experts and rated according to their sweet taste impression on a scale of 1 [not sweet] to 10 [extremely sweet]. Then in each case from the average values of the assessments of samples (A) and (B) the change (in %) in the sweet taste impression was calculated.

[4] = test system: sweet taste intensity (in the oral cavity); test: Taste tests by a sensory panel (sweet taste intensity in the oral cavity); assay type: in vivo; conditions: tasting by sensory panel
Source text: From this it can be concluded that during the tasting of the compounds of formulas (1) to (4) in the oral cavity no lactisole was released.

[5] = Sucrose 5% + test substance 10 mg/l
[6] = Sucrose 5%, test substance 10 mg/l

Dose-effect curve for aspartame or saccharose (T1R2/T1R3 receptors [2]; in the presence of the compound): not altered
Compound: COc1ccc(OC(C)C(=O)OCC(COC(=O)C(C)Oc2ccc(OC)cc2)OC(=O)C(C)Oc2ccc(OC)cc2)cc1 (stereo not drawn) [Compound of formula (2), 2-(4-methoxyphenoxy)propanoic acid-2,3-bis-[2-(4-methoxyphenoxy)-propionyloxy]-propyl ester]
Antagonistic effect (inhibition) on the sweet taste receptor (T1R2/T1R3 receptors [1]): do not themselves demonstrate any antagonistic effect | Antagonistic effect on the sweet taste receptor (T1R2/T1R3 receptors [2]; in the presence of aspartame or sucrose): does not demonstrate any antagonistic effect | Sweet taste impression (1-10) Sample (B) ([3]; Naringin dihydrochalcone 50 mg/l + test substance 10 mg/l): 5.6 ± 2.1 | Change in sweet taste impression [%] ([3]; Naringin dihydrochalcone 50 mg/l, test substance 10 mg/l): 9% | Sweet taste impression (1-10) Sample (B) [3, 5]: 5.6 ± 1.5 | Change in sweet taste impression [%] [3, 6]: 3%

Compound: CCCCOC(=O)C(C)Oc1ccc(OC)cc1 (stereo not drawn) [Compound of formula (4), 2-(4-methoxyphenoxy)propanoic acid butyl ester]
Sweet taste impression (1-10) Sample (B) ([3]; Sucrose 5% + test substance 16 mg/l): 5.6 ± 1.5 | Change in sweet taste impression [%] ([3]; Sucrose 5%, test substance 16 mg/l): −5%

Compound: CCCCCCOC(=O)C(C)Oc1ccc(OC)cc1 (stereo not drawn) [Compound of formula (1), 2-(4-methoxyphenoxy)-propanoic acid hexyl ester]
Antagonistic effect (inhibition) on the sweet taste receptor (T1R2/T1R3 receptors [1]): do not themselves demonstrate any antagonistic effect | Sweet taste impression (1-10) Sample (B) ([3]; Sucrose 5% + test substance 14 mg/l): 5.0 ± 1 | Change in sweet taste impression [%] ([3]; Sucrose 5%, test substance 14 mg/l): −10%

Compound: COc1ccc(OC(C)C(=O)O)cc1 (stereo not drawn) [Lactisole, 2-(4-methoxyphenoxy)propanoic acid, reference compound]
Influence on the sweet taste intensity (in the oral cavity) [4]: clear reduction in the sweet taste intensity | Sweet taste impression (1-10) Sample (B) [3, 5]: 4.2 ± 1.4 | Change in sweet taste impression [%] [3, 6]: −27%
